Like-named read-outs stand apart in the source and are kept apart here.
What was measured:
PC3 cells = assay: PC3 growth inhibition (Cell-titer glo, 72 hours); assay type: cell-based; conditions: Homo sapiens, PC-3; compound concentration 1.667 μM; PC3 cells, 72 hours, Cell-titer glo; read-out: Percent Inhibition (PC3 growth inhibition)
In short: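 Compounds in AIM serum-free medium were applied for 72 h at 37 °C, 5% CO2 to PC3 cells plated overnight from RPMI1640 culture. Luminescence after 10 min CellTiter-Glo, normalised to DMSO, gave % viability at 1 μM or 1.667 μM, or GI50/LD50.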

hNAMPT protein = hNAMPT protein (Homo sapiens (Human), UniProt P43490); assay: NAMPT enzyme assay (TR-FRET/HTRF, BodiPY ligand, anti 6His-Tb); assay type: binding; conditions: for IC50: read-out: IC50; for inhibition at 1 µM: read-out: Percent Inhibition
hNAMPT protein, sequence (P43490 whole entry): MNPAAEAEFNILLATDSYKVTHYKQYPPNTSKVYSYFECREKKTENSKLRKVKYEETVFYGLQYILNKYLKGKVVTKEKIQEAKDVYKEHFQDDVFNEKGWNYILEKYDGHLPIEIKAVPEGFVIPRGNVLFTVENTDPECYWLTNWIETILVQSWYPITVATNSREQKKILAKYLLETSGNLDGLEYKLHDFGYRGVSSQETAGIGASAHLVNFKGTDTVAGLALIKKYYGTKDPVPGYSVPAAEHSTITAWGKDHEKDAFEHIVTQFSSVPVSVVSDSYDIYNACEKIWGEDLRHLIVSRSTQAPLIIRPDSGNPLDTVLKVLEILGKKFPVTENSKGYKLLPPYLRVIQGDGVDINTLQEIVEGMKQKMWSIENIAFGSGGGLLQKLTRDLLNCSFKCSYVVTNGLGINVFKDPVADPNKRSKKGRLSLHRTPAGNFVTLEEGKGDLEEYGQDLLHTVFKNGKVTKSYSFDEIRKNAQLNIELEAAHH
In short: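 Compound or DMSO was incubated for 1 h at room temperature, protected from light, with BodiPY ligand and hNAMPT labelled by terbium anti-6His antibody. The 520 nm to 486 nm emission ratio after 320 nm excitation gave inhibition versus vehicle, from which concentration-response curves yielded IC50.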

[1] = NAMPT inhibition at compound concentration 1 μM
[2] = NAMPT inhibition, IC50 range class

Compound	inhibition at 1.667 µM (PC3 cells) [%]	IC50 (hNAMPT protein; NAMPT IC50 range class) [nM]	inhibition at 1 µM (hNAMPT protein; compound concentration 1 μM) [%]	inhibition at 1 µM (hNAMPT protein; [1]) [%]	IC50 (hNAMPT protein; [2]) [nM]
COc1nccc(-c2nc3cc(C(=O)NCCCc4ncc[nH]4)ccc3nc2-c2ccc(F)cc2)c1F [Compound I-391, 3-(3-fluoro-2-methoxypyridin-4-yl)-2-(4-fluorophenyl)-N-[3-(1H-imidazol-2-yl)propyl]quinoxaline-6-carboxamide]	3	100 to 500	83		
COc1cc(-c2nc3cc(C(=O)NCCCc4ncc[nH]4)ccc3nc2OC(C)C)c(F)cn1 [Compound I-392, 3-(5-fluoro-2-methoxypyridin-4-yl)-N-[3-(1H-imidazol-2-yl)propyl]-2-isopropoxyquinoxaline-6-carboxamide]	1	100 to 500	91		
N#Cc1ccc(Cl)c(-c2nc3cc(C(=O)NCCCc4ncc[nH]4)ccc3nc2-c2ccc(F)cc2)c1 [Compound I-393, 3-(2-chloro-5-cyanophenyl)-2-(4-fluorophenyl)-N-[3-(1H-imidazol-2-yl)propyl]quinoxaline-6-carboxamide]	2	< 100	98		
Cc1cncc(-c2nc3cc(C(=O)NCCCc4ncc[nH]4)ccc3nc2-c2ccc(F)cc2)c1 [Compound I-394, 2-(4-fluorophenyl)-N-[3-(1H-imidazol-2-yl)propyl]-3-(5-methylpyridin-3-yl)quinoxaline-6-carboxamide]	3	100 to 500	74		
Cc1cccc(-c2nc3cc(C(=O)NCCCc4ncc[nH]4)ccc3nc2-c2ccc(F)cc2)c1 [Compound I-395, 2-(4-fluorophenyl)-N-[3-(1H-imidazol-2-yl)propyl]-3-(3-methylphenyl)quinoxaline-6-carboxamide]	2			83	100 to 500
O=C(NCCCc1ncc[nH]1)c1ccc2nc(OCc3ccccn3)c(-c3ccc(F)cc3)nc2c1 [Compound I-396, 3-(4-fluorophenyl)-N-[3-(1H-imidazol-2-yl)propyl]-2-(pyridin-2-ylmethoxy)quinoxaline-6-carboxamide]	2			98	< 100
O=C(NCCCc1ncc[nH]1)c1ccc2nc(-c3ccc(F)cc3)c(-c3ccc(Cl)c(Cl)c3)nc2c1 [Compound I-397, 3-(3,4-dichlorophenyl)-2-(4-fluorophenyl)-N-[3-(1H-imidazol-2-yl)propyl]quinoxaline-6-carboxamide]	2			97	< 100
COc1cccc(-c2nc3cc(C(=O)NCCCc4ncc[nH]4)ccc3nc2-c2ccc(F)cc2)c1F [Compound I-398, 3-(2-fluoro-3-methoxyphenyl)-2-(4-fluorophenyl)-N-[3-(1H-imidazol-2-yl)propyl]quinoxaline-6-carboxamide]	2			93	< 100
O=C(NCCCc1ncc[nH]1)c1ccc2nc(-c3ccc(F)cc3)c(-c3cc(F)ccc3Cl)nc2c1 [Compound I-399, 3-(2-chloro-5-fluorophenyl)-2-(4-fluorophenyl)-N-[3-(1H-imidazol-2-yl)propyl]quinoxaline-6-carboxamide]	1			95	< 100
O=C(NCCCc1ncc[nH]1)c1ccc2nc(OC3CCCC3)c(-c3ccc(F)cc3)nc2c1 [Compound I-400, 2-(cyclopentyloxy)-3-(4-fluorophenyl)-N-[3-(1H-imidazol-2-yl)propyl]quinoxaline-6-carboxamide]	2			97	< 100
CS(=O)(=O)CCOc1nc2ccc(C(=O)NCCCc3ncc[nH]3)cc2nc1-c1ccc(F)cc1 [Compound I-401, 3-(4-fluorophenyl)-N-[3-(1H-imidazol-2-yl)propyl]-2-[2-(methylsulfonyl)ethoxy]quinoxaline-6-carboxamide]	99			69	100 to 500
CCOc1nc2ccc(C(=O)NCCCc3ncc[nH]3)cc2nc1-c1ccc(Cl)cc1 [Compound I-402, 3-(4-chlorophenyl)-2-ethoxy-N-[3-(1H-imidazol-2-yl)propyl]quinoxaline-6-carboxamide]	2			97	< 100
CC(C)Oc1nc2ccc(C(=O)NCc3ccc4nccn4c3)cc2nc1-c1ccc(Cl)s1 [Compound I-403, 3-(5-chloro-2-thienyl)-N-(imidazo[1,2-a]pyridin-6-ylmethyl)-2-isopropoxyquinoxaline-6-carboxamide]	0			89	100 to 500
O=C(NCCCc1ncc[nH]1)c1ccc2nc(OC3CC4(CCN4)C3)c(-c3ccc(F)cc3)nc2c1 (stereo not drawn) [Compound I-404, 2-(1-azaspiro[3.3]hept-6-yloxy)-3-(4-fluorophenyl)-N-[3-(1H-imidazol-2-yl)propyl]quinoxaline-6-carboxamide]	1			> 99	< 100
O=C(NCCCc1ncc[nH]1)c1ccc2nc(CN3CCOCC3)c(-c3ccc(F)cc3)nc2c1 [Compound I-405, 3-(4-fluorophenyl)-N-[3-(1H-imidazol-2-yl)propyl]-2-(morpholin-4-ylmethyl)quinoxaline-6-carboxamide]	3			72	100 to 500
O=C(NCCCc1ncc[nH]1)c1ccc2nc(OCC3CCOCC3)c(-c3ccc(F)cc3)nc2c1 [Compound I-406, 3-(4-fluorophenyl)-N-[3-(1H-imidazol-2-yl)propyl]-2-(tetrahydro-2H-pyran-4-ylmethoxy)quinoxaline-6-carboxamide]	2			> 99	< 100
N#CC1(COc2nc3ccc(C(=O)NCCCc4ncc[nH]4)cc3nc2-c2ccc(F)cc2)CCC1 [Compound I-407, 2-[(1-cyanocyclobutyl)methoxy]-3-(4-fluorophenyl)-N-[3-(1H-imidazol-2-yl)propyl]quinoxaline-6-carboxamide]	2			> 99	< 100
O=C(NCc1cn2cccnc2n1)c1ccc2nc(-c3ccc(F)cc3)c(-c3ccc(F)cc3)nc2c1 [Compound I-408, 2,3-bis(4-fluorophenyl)-N-(imidazo[1,2-a]pyrimidin-2-ylmethyl)quinoxaline-6-carboxamide]	> 99			85	100 to 500
O=C(NCCCc1ncc[nH]1)c1ccc2nc(OCc3cccnc3)c(-c3ccc(F)cc3)nc2c1 [Compound I-409, 3-(4-fluorophenyl)-N-[3-(1H-imidazol-2-yl)propyl]-2-(pyridin-3-ylmethoxy)quinoxaline-6-carboxamide]	2			98	< 100
O=C(NCCCc1ncc[nH]1)c1ccc2nc(-c3ccc(F)cc3)c(-c3cc(Cl)cnc3F)nc2c1 [Compound I-410, 3-(5-chloro-2-fluoropyridin-3-yl)-2-(4-fluorophenyl)-N-[3-(1H-imidazol-2-yl)propyl]quinoxaline-6-carboxamide]	2			98	100 to 500
COCC(COC)Oc1nc2ccc(C(=O)NCCCc3ncc[nH]3)cc2nc1-c1ccc(F)cc1 [Compound I-411, 2-[(1,3-dimethoxypropan-2-yl)oxy]-3-(4-fluorophenyl)-N-[3-(1H-imidazol-2-yl)propyl]quinoxaline-6-carboxamide]	2			97	100 to 500
O=C(NCCCc1ncc[nH]1)c1ccc2nc(-c3ccc(F)cc3)c(-c3cc4ccccc4s3)nc2c1 [Compound I-412, 3-(1-benzothiophen-2-yl)-2-(4-fluorophenyl)-N-[3-(1H-imidazol-2-yl)propyl]quinoxaline-6-carboxamide]	6			96	100 to 500
Cc1nccn1-c1nc2ccc(C(=O)NCCCc3ncc[nH]3)cc2nc1-c1ccc(F)cc1 [Compound I-413, 3-(4-fluorophenyl)-N-[3-(1H-imidazol-2-yl)propyl]-2-(2-methyl-1H-imidazol-1-yl)quinoxaline-6-carboxamide]	3			80	100 to 500
CC(C)Oc1nc2ccc(C(=O)NCCCc3ncc[nH]3)cc2nc1-c1cc(C#N)ccc1F [Compound I-414, 3-(5-cyano-2-fluorophenyl)-N-[3-(1H-imidazol-2-yl)propyl]-2-isopropoxyquinoxaline-6-carboxamide]	1			95	< 100
COc1ccc(-c2nc3cc(C(=O)NCCCc4ncc[nH]4)ccc3nc2-c2ccc(F)cc2)c(F)c1 [Compound I-415, 3-(2-fluoro-4-methoxyphenyl)-2-(4-fluorophenyl)-N-[3-(1H-imidazol-2-yl)propyl]quinoxaline-6-carboxamide]	2			75	100 to 500
C#Cc1ccc(-c2nc3cc(C(=O)NCCCc4ncc[nH]4)ccc3nc2-c2ccc(F)cc2)cc1 [Compound I-416, 3-(4-ethynylphenyl)-2-(4-fluorophenyl)-N-[3-(1H-imidazol-2-yl)propyl]quinoxaline-6-carboxamide]	2			76	100 to 500
